{"source": "patent US20060105045A1", "about": "“Cyclodextrin solubilizers for liquid and semi-solid formulations” (priority 2004, published 2006)", "key": {"[1]": {"assay": "Initial solubility screening of selected drugs in cyclodextrin derivative:water-miscible organic solvent stock solutions", "type": "physicochemical", "conditions": "for grams of stock solution required to solubilize the drug, Stock #2 / grams of stock solution required to solubilize the drug, Stock #3 / grams of stock solution required to solubilize the drug, Stock #1 / grams of stock solution required to solubilize the drug, Stock #5 / grams of stock solution required to solubilize the drug, Stock #6 / grams of stock solution required to solubilize the drug, Stock #4 / grams of stock solution required to solubilize the drug, Stock #7: 20-22 mg drug, raloxifene HCl + ca. 100 mg water, tamoxifen citrate + ca. 40 mg water; for grams of stock solution required to solubilize the drug, Stock #2 / grams of stock solution required to solubilize the drug, Stock #3 / grams of stock solution required to solubilize the drug, Stock #1: HBenβCD5.0 (30 wt %); for grams of stock solution required to solubilize the drug, Stock #2 / grams of stock solution required to solubilize the drug, Stock #3: PEG 400 (66.2 wt %); for grams of stock solution required to solubilize the drug, Stock #2: EtOH (3.8 wt %); for grams of stock solution required to solubilize the drug, Stock #3: PG (3.8 wt %); for grams of stock solution required to solubilize the drug, Stock #1: PEG 400 (70 wt %); for grams of stock solution required to solubilize the drug, Stock #5 / grams of stock solution required to solubilize the drug, Stock #6 / grams of stock solution required to solubilize the drug, Stock #4: HBenβCD6.6 (32 wt %); for grams of stock solution required to solubilize the drug, Stock #5 / grams of stock solution required to solubilize the drug, Stock #6: PEG 400 (64.6 wt %); for grams of stock solution required to solubilize the drug, Stock #5 / grams of stock solution required to solubilize the drug, Stock #7: EtOH (3.4 wt %); for grams of stock solution required to solubilize the drug, Stock #6: PG (3.4 wt %); for grams of stock solution required to solubilize the drug, Stock #4: PEG 400 (68 wt %); for grams of stock solution required to solubilize the drug, Stock #7: SulfoHBenCD (29 wt %), PEG 400 (67.6 wt %); for amount of stock solutions in which the drug was soluble: after mixing for ca. 48 h, all stock solutions", "procedure": "In the following experiments, the water-miscible solvents were dried as described in example 1. The hydroxybutenyl-β-cyclodextrins (HBenβCD6.6 and HBenβCD5.0) and the sulfonated hydroxybutenyl-β-cyclodextrins (MSsulfonate=0.3, MSbutentyl=4.4) were carefully dried prior to use. The following stock solutions were prepared:\n2. HBenβCD5.0 (30 wt %), PEG 400 (66.2 wt %), and EtOH (3.8 wt %)\n7. SulfoHBenCD (29 wt %), PEG 400 (67.6 wt %), and EtOH (3.4 wt %)\nVarious drugs (20-22 mg) were weighed into different glass vials with screw caps. To each vial was added 1 gram (g) ±0.02 g of stock solution. The vial contents were mixed for ca. 48 h. Vials were inspected visually to determine whether the drugs were dissolved."}, "[2]": {"assay": "Pharmacokinetic study, oral bioavailability of tamoxifen:HBenBCD complexes", "type": "in vivo, Sprague-Dawley rats", "conditions": "male, Sprague-Dawley, rat, plasma, 10 mg/kg", "procedure": "7, 2005, concurrently with this application (no Serial assigned at this time). […] The solid complexes were dissolved in the appropriate amount of water for aqueous oral dosing of animals.\nThe study animal were male Sprague-Dawley rats. […] Each group was sub-divided into 4 groups of 3 animals on the basis of time of dosing (AM or PM) and diet (fed or fasted). In the case of fasted animals, food was removed 8 hours prior to dosing then returned 5 hours post-dose.\nBlood samples (ca. 300 μL) were collected from each animal via the jugular or sublingual vein at 1, 2, 3, 4, 6, 12 and 24 hours post-dose. Plasma was separated and stored in 96 well plates at −17 to −80° C. until analysis. […] Plasma (100 μL) was precipitated with 250 μL of acetonitrile. After centrifugation, the supernatant was analyzed for tamoxifen, hydroxytamoxifen, and desmethyltamoxifen by reversed phase LC-MS-MS using diphenhydramine as an internal standard.\nThis oral suspension dose was given to fed animals in the AM.\nThe area under the plasma concentration-time curve (AUC) from time zero to 24 h (AUC0-24h) and from time zero to infinity (AUC0-∞) was calculated by standard methods (Clinical Pharmacokinetics, Malcolm Rowland and Thomas Tozer, Lippincott, Williams, & Wilkins, 1995). Oral bioavailability was determined using the AUC from the IV and oral doses adjusted for the animal dose."}}, "note": "Where a name gives a salt, the structure may show the parent alone.", "data": [{"compound": "C=C1C[C@@H]2[C@H](CC[C@]3(C)C(=O)CC[C@@H]23)[C@@]2(C)C=CC(=O)C=C12", "note": "[Exemestane]", "values": [{"measurement": "grams of stock solution required to solubilize the drug, Stock #2", "setting": "[1]", "result": 1.5, "unit": "grams"}, {"measurement": "grams of stock solution required to solubilize the drug, Stock #3", "setting": "[1]", "result": 1.5, "unit": "grams"}, {"measurement": "grams of stock solution required to solubilize the drug, Stock #1", "setting": "[1]", "result": 1.5, "unit": "grams"}, {"measurement": "grams of stock solution required to solubilize the drug, Stock #5", "setting": "[1]", "result": 1.5, "unit": "grams"}, {"measurement": "grams of stock solution required to solubilize the drug, Stock #6", "setting": "[1]", "result": 1.5, "unit": "grams"}, {"measurement": "grams of stock solution required to solubilize the drug, Stock #4", "setting": "[1]", "result": 1.5, "unit": "grams"}, {"measurement": "grams of stock solution required to solubilize the drug, Stock #7", "setting": "[1]", "result": 1.5, "unit": "grams"}]}, {"compound": "O=C(c1ccc(OCCN2CCCCC2)cc1)c1c(-c2ccc(O)cc2)sc2cc(O)ccc12", "note": "[Raloxifene HCL]", "values": [{"measurement": "grams of stock solution required to solubilize the drug, Stock #2", "setting": "[1]", "result": 1.4, "unit": "grams"}, {"measurement": "grams of stock solution required to solubilize the drug, Stock #3", "setting": "[1]", "result": 1.6, "unit": "grams"}, {"measurement": "grams of stock solution required to solubilize the drug, Stock #1", "setting": "[1]", "result": 1.5, "unit": "grams"}, {"measurement": "grams of stock solution required to solubilize the drug, Stock #5", "setting": "[1]", "result": 1.6, "unit": "grams"}, {"measurement": "grams of stock solution required to solubilize the drug, Stock #6", "setting": "[1]", "result": 1.6, "unit": "grams"}, {"measurement": "grams of stock solution required to solubilize the drug, Stock #4", "setting": "[1]", "result": 1.6, "unit": "grams"}, {"measurement": "grams of stock solution required to solubilize the drug, Stock #7", "setting": "[1]", "result": 1.1, "unit": "grams"}]}, {"compound": "CC(=O)O[C@H]1C(=O)[C@@]2(C)[C@H]([C@H](OC(=O)c3ccccc3)[C@]3(O)C[C@H](OC(=O)[C@H](O)[C@@H](NC(=O)c4ccccc4)c4ccccc4)C(C)=C1C3(C)C)[C@]1(OC(C)=O)CO[C@@H]1C[C@@H]2O", "note": "[Paclitaxel]", "values": [{"measurement": "grams of stock solution required to solubilize the drug, Stock #2", "setting": "[1]", "result": 1.0, "unit": "grams"}, {"measurement": "grams of stock solution required to solubilize the drug, Stock #3", "setting": "[1]", "result": 1.0, "unit": "grams"}, {"measurement": "grams of stock solution required to solubilize the drug, Stock #1", "setting": "[1]", "result": 1.0, "unit": "grams"}, {"measurement": "grams of stock solution required to solubilize the drug, Stock #5", "setting": "[1]", "result": 1.0, "unit": "grams"}, {"measurement": "grams of stock solution required to solubilize the drug, Stock #6", "setting": "[1]", "result": 1.0, "unit": "grams"}, {"measurement": "grams of stock solution required to solubilize the drug, Stock #4", "setting": "[1]", "result": 1.0, "unit": "grams"}, {"measurement": "grams of stock solution required to solubilize the drug, Stock #7", "setting": "[1]", "result": 1.0, "unit": "grams"}, {"measurement": "amount of stock solutions in which the drug was soluble", "setting": "[1]", "result": 1, "unit": "g"}]}, {"compound": "CC/C(=C(\\c1ccccc1)c1ccc(OCCN(C)C)cc1)c1ccccc1", "note": "[Tamoxifen]", "values": [{"measurement": "bioavailability", "setting": "[2]", "result": 5, "unit": "%"}]}, {"compound": "CC(C)(C#N)c1cc(Cn2cncn2)cc(C(C)(C)C#N)c1", "note": "[Anastrozole]", "values": [{"measurement": "grams of stock solution required to solubilize the drug, Stock #2", "setting": "[1]", "result": 1.0, "unit": "grams"}, {"measurement": "grams of stock solution required to solubilize the drug, Stock #3", "setting": "[1]", "result": 1.0, "unit": "grams"}, {"measurement": "grams of stock solution required to solubilize the drug, Stock #1", "setting": "[1]", "result": 1.0, "unit": "grams"}, {"measurement": "grams of stock solution required to solubilize the drug, Stock #5", "setting": "[1]", "result": 1.0, "unit": "grams"}, {"measurement": "grams of stock solution required to solubilize the drug, Stock #6", "setting": "[1]", "result": 1.0, "unit": "grams"}, {"measurement": "grams of stock solution required to solubilize the drug, Stock #4", "setting": "[1]", "result": 1.0, "unit": "grams"}, {"measurement": "grams of stock solution required to solubilize the drug, Stock #7", "setting": "[1]", "result": 1.0, "unit": "grams"}, {"measurement": "amount of stock solutions in which the drug was soluble", "setting": "[1]", "result": 1, "unit": "g"}]}]}
